# How the values were obtained:
# Experiment in all cases: Postemergence herbicidal activity, greenhouse, visual injury after 20-22 d
# Assay type in all cases: in vivo
# [1] = tested on: barnyardgrass (Echinochloa crus-galli, ECHCG); settings: two trials
# Procedure: (§1) Seeds of the desired test plant species were planted in Sun Gro MetroMix® 306 planting mixture, which typically has a pH of 6.0 to 6.8 and an organic matter content of about 30 percent, in plastic pots with a surface area of 103.2 square centimeters (cm^2). When required to ensure good germination and healthy plants, a fungicide treatment and/or other chemical or physical treatment was applied. The plants were grown for 7-36 days (d) in a greenhouse with an approximate 14-hour (h) photoperiod which was maintained at about 23° C. during the day and 22° C. during the night. Nutrients and water were added on a regular basis and supplemental lighting was provided with overhead metal halide 1000-Watt lamps as necessary. The plants were employed for testing when they reached the second or third true leaf stage.
# (§2) An emulsifiable concentrate (EC) formulation containing Compound 1 at 100 gai/L was prepared by combining Compound 1 with 1-butyl-2-pyrrolidinone (Tamisolve NxG; 360.5 g/L), benzyl acetate (544.6 g/L) and Agnique MBL 520L surfactant (52.9 g/L). […] The concentrated stock solutions were diluted with an aqueous mixture of 1.5% v/v of Agri-dex crop oil concentrate to provide the appropriate application rates. Compound requirements are based upon a 12 milliliter (mL) application volume at a rate of 187 liters per hectare (L/ha). Spray solutions of the experimental compound mixtures were prepared by adding the stock solutions to the appropriate amount of dilution solution to form a 12 mL spray solution in two-way combinations. Formulated compounds were applied to the plant material with an overhead Mandel track sprayer equipped with 8002E nozzles calibrated to deliver 187 L/ha over an application area of 0.503 square meters (m^2) at a spray height of […] above average plant canopy. Control plants were sprayed in the same manner with the solvent blank. Application rates for component (a) are in g ai/ha, and application rates for component (b) are in g ai/ha.
# (§3) The treated plants and control plants were placed in a greenhouse as described above and watered by sub-irrigation to prevent wash-off of the test compounds. After 20-22 d, the condition of the test plants as compared with that of the control plants was determined visually and scored on a scale of 0 to 100 percent where 0 corresponds to no injury and 100 corresponds to complete kill. […] The Colby method was used to determine the herbicidal effects expected from the mixtures.
# [2] = tested on: common chickweed (Stellaria media, STEME); settings: two trials
# Procedure: as §1, §2, §3
# [3] = tested on: common lambsquarters (Chenopodium album L., CHEAL)
# Procedure: as §1, §2, §3
# [4] = tested on: giant foxtail (Setaria faberi, SETFA)
# Procedure: as §1, §2, §3
# [5] = tested on: grain sorghum (Sorghum vulgare, SORVU); settings: two trials
# Procedure: as §1, §2, §3
# [6] = tested on: ivyleaf morningglory (Ipomoea hederacea, IPOHE); settings: two trials
# Procedure: as §1, §2, §3
# [7] = tested on: kochia (Kochia scoparia, KCHSC)
# Procedure: as §1, §2, §3
# [8] = tested on: large crabgrass (Digitaria sanguinalis, DIGSA); settings: two trials
# Procedure: as §1, §2, §3
# [9] = tested on: maize (Zea mays, ZEAMX); settings: two trials
# Procedure: as §1, §2, §3
# [10] = tested on: pigweed (Amaranthus retroflexus, AMARE); settings: two trials
# Procedure: as §1, §2, §3
# [11] = tested on: poinsettia (Euphorbia heterophylla, EPHHL)
# Procedure: as §1, §2, §3
# [12] = tested on: rice (Oryza sativa, ORYSA); settings: two trials
# Procedure: as §1, §2, §3
# [13] = tested on: soybean (Glycine max, GLXMA); settings: two trials
# Procedure: as §1, §2, §3
# [14] = tested on: spring rape (Brassica napus, BRSNN)
# Procedure: as §1, §2, §3
# [15] = tested on: sunflower (Helianthus annuus, HELAN); settings: two trials
# Procedure: as §1, §2, §3
# [16] = tested on: thistle (Cirsium arvense CIRAR)
# Procedure: as §1, §2, §3
# [17] = tested on: velvetleaf (Abutilon theophrasti, ABUTH)
# Procedure: as §1, §2, §3
# [18] = tested on: wild buckwheat (Polygonum convolvulus, POLCO)
# Procedure: as §1, §2, §3
# [19] = tested on: wild oat (Avena fatua, AVEFA); settings: two trials
# Procedure: as §1, §2, §3
# [20] = tested on: wild pansy (Viola tricolor, VIOTR)
# Procedure: as §1, §2, §3
# [21] = tested on: winter rape (Brassica napus, BRSNW); settings: two trials
# Procedure: as §1, §2, §3
# [22] = tested on: winter wheat (Triticum aestivum, TRZAW); settings: two trials
# Procedure: as §1, §2, §3
# [23] = Compound 1 5 g ai/ha alone, Tables 4-5
# [24] = Compound 1 5 g ai/ha alone, two trials
# [25] = Compound 1 10 g ai/ha alone, Tables 4-5
# [26] = Compound 1 10 g ai/ha alone, two trials
structure (smiles),measurement,setting,value
Nc1c(F)c(-c2ccc3cc[nH]c3c2F)nc(C(=O)O)c1Cl [Compound 1],"Effect (% visual injury), Obs",[1]; Compound 1 5 g ai/ha alone,20%
same,"Effect (% visual injury), Obs",[1]; Compound 1 10 g ai/ha alone,60%
same,"Effect (% visual injury), Obs",[2]; Compound 1 5 g ai/ha alone,70%
same,"Effect (% visual injury), Obs",[2]; Compound 1 10 g ai/ha alone,70%
same,"Effect (% visual injury), Obs",[3]; [23],90%
same,"Effect (% visual injury), Obs",[3]; [24],90%
same,"Effect (% visual injury), Obs",[3]; [25],95%
same,"Effect (% visual injury), Obs",[3]; [26],98%
same,"Effect (% visual injury), Obs",[4]; [23],50%
same,"Effect (% visual injury), Obs",[4]; [24],30%
same,"Effect (% visual injury), Obs",[4]; [25],75%
same,"Effect (% visual injury), Obs",[4]; [26],63%
same,"Effect (% visual injury), Obs",[5]; Compound 1 5 g ai/ha alone,0%
same,"Effect (% visual injury), Obs",[5]; Compound 1 10 g ai/ha alone,50%
same,"Effect (% visual injury), Obs",[6]; Compound 1 5 g ai/ha alone,10%
same,"Effect (% visual injury), Obs",[6]; Compound 1 10 g ai/ha alone,10%
same,"Effect (% visual injury), Obs",[7]; [23],65%
same,"Effect (% visual injury), Obs",[7]; [24],63%
same,"Effect (% visual injury), Obs",[7]; [25],75%
same,"Effect (% visual injury), Obs",[7]; [26],68%
same,"Effect (% visual injury), Obs",[8]; Compound 1 5 g ai/ha alone,0%
same,"Effect (% visual injury), Obs",[8]; Compound 1 10 g ai/ha alone,10%
same,"Effect (% visual injury), Obs",[9]; Compound 1 5 g ai/ha alone,0%
same,"Effect (% visual injury), Obs",[9]; Compound 1 10 g ai/ha alone,0%
same,"Effect (% visual injury), Obs",[10]; Compound 1 5 g ai/ha alone,75%
same,"Effect (% visual injury), Obs",[10]; Compound 1 10 g ai/ha alone,97%
same,"Effect (% visual injury), Obs",[11]; [23],75%
same,"Effect (% visual injury), Obs",[11]; [24],86%
same,"Effect (% visual injury), Obs",[11]; [25],100%
same,"Effect (% visual injury), Obs",[11]; [26],99%
same,"Effect (% visual injury), Obs",[12]; Compound 1 5 g ai/ha alone,0%
same,"Effect (% visual injury), Obs",[12]; Compound 1 10 g ai/ha alone,10%
same,"Effect (% visual injury), Obs",[13]; Compound 1 5 g ai/ha alone,95%
same,"Effect (% visual injury), Obs",[13]; Compound 1 10 g ai/ha alone,100%
same,"Effect (% visual injury), Obs",[14]; [23],50%
same,"Effect (% visual injury), Obs",[14]; [24],50%
same,"Effect (% visual injury), Obs",[14]; [25],80%
same,"Effect (% visual injury), Obs",[14]; [26],80%
same,"Effect (% visual injury), Obs",[15]; Compound 1 5 g ai/ha alone,90%
same,"Effect (% visual injury), Obs",[15]; Compound 1 10 g ai/ha alone,90%
same,"Effect (% visual injury), Obs",[16]; [23],50%
same,"Effect (% visual injury), Obs",[16]; [24],50%
same,"Effect (% visual injury), Obs",[16]; [25],60%
same,"Effect (% visual injury), Obs",[16]; [26],60%
same,"Effect (% visual injury), Obs",[17]; [23],50%
same,"Effect (% visual injury), Obs",[17]; [24],50%
same,"Effect (% visual injury), Obs",[17]; [25],50%
same,"Effect (% visual injury), Obs",[17]; [26],55%
same,"Effect (% visual injury), Obs",[18]; [23],40%
same,"Effect (% visual injury), Obs",[18]; [24],53%
same,"Effect (% visual injury), Obs",[18]; [25],40%
same,"Effect (% visual injury), Obs",[18]; [26],58%
same,"Effect (% visual injury), Obs",[19]; Compound 1 5 g ai/ha alone,0%
same,"Effect (% visual injury), Obs",[19]; Compound 1 10 g ai/ha alone,0%
same,"Effect (% visual injury), Obs",[20]; [23],10%
same,"Effect (% visual injury), Obs",[20]; [24],8%
same,"Effect (% visual injury), Obs",[20]; [25],15%
same,"Effect (% visual injury), Obs",[20]; [26],13%
same,"Effect (% visual injury), Obs",[21]; Compound 1 5 g ai/ha alone,40%
same,"Effect (% visual injury), Obs",[21]; Compound 1 10 g ai/ha alone,45%
same,"Effect (% visual injury), Obs",[22]; Compound 1 5 g ai/ha alone,0%
same,"Effect (% visual injury), Obs",[22]; Compound 1 10 g ai/ha alone,0%

# From patent US20210161135A1, “WEED CONTROL FROM APPLICATIONS OF PYRIDINE CARBOXYLIC ACID HERBICIDES AND 4-HYDROXYPHENYL-PYRUVATE DIOXYGENASE (HPPD) INHIBITORS” (Dow AgroSciences LLC, priority 2018, published 2021)
